From patent US11166460B2, “α-amino acrylate microbicide, and preparation method therefor and uses thereof” (priority 2017, dated 2021)
Like-named read-outs stand apart in the source and are kept apart here.

Key:
[1] = tested on: tobacco mosaic virus (TMV); assay: Anti-TMV curative activity (treatment mode), live friction inoculation on tobacco seedlings; type: in vivo; conditions: Tobacco mosaic virus, read-out: Anti-TMV activity, Curative effect (inhibition), 100 μg/mL, tobacco seedlings, checked on seventh day
[2] = tested on: tobacco mosaic virus (TMV); assay: Anti-TMV inactivation activity (inactivation mode), compound mixed with TMV before inoculation of tobacco leaves; type: in vivo; conditions: Tobacco mosaic virus, read-out: Anti-TMV activity, Inactivation effect (inhibition)
[3] = tested on: tobacco mosaic virus (TMV); assay: Anti-TMV protective activity (protection mode), live friction inoculation on tobacco seedlings; type: in vivo; conditions: Tobacco mosaic virus, read-out: Anti-TMV activity, Protection effect (inhibition)
[4] = tested on: tobacco mosaic virus (TMV); assay: Anti-TMV inducing activity (induction mode), tobacco seedlings; type: in vivo; conditions: Tobacco mosaic virus, read-out: Anti-TMV activity, Induction effect (inhibition), 100 μg/mL, tobacco seedlings
Alternaria solani = assay: Fungicidal activity, fungi growth rate method, AS; type: cell-based; conditions: Alternaria solani, 50 μg/mL
Botrytis cinerea = assay: Fungicidal activity, fungi growth rate method, BC; type: cell-based; conditions: Botrytis cinerea; 50 μg/mL; read-out: Fungicidal activity, inhibition, BC
Cercospora arachidicola = assay: Fungicidal activity, fungi growth rate method, CA; type: cell-based; conditions: Mycosphaerella arachidis, 50 μg/mL
wheat Gibberella zeae = assay: microbe, parasite or virus in culture; type: cell-based; conditions: Fusarium graminearum
[5] = tested on: Phytophthora infestans (Mont) de Bary; assay: microbe, parasite or virus in culture; type: cell-based; conditions: Phytophthora infestans
Physalospora piricola = assay: Fungicidal activity, fungi growth rate method, PP; type: cell-based; conditions: 50 μg/mL
Pellicularia sasakii = assay: Fungicidal activity, fungi growth rate method, PS; type: cell-based; conditions: 50 μg/mL
Rhizoctonia cerealis = assay: Fungicidal activity, fungi growth rate method, RC; type: cell-based; conditions: Ceratobasidium cereale, 50 μg/mL
Sclerotinia sclerotiorum = assay: microbe, parasite or virus in culture; type: cell-based; conditions: Sclerotinia sclerotiorum, 50 μg/mL
[6] = read-out: Fungicidal activity, inhibition, AS
[7] = read-out: Fungicidal activity, inhibition, CA
[8] = read-out: Fungicidal activity, inhibition, GZ
[9] = read-out: Fungicidal activity, inhibition, PI
[10] = read-out: Fungicidal activity, inhibition, PP
[11] = read-out: Fungicidal activity, inhibition, PS
[12] = read-out: Fungicidal activity, inhibition, RC
[13] = read-out: Fungicidal activity (inhibition) against SS: Sclerotinia sclerotiorum
[14] = read-out: Fungicidal activity, inhibition, SS

O=C(N/C(=C\c1ccccc1)C(=O)N1CCC(O)CC1)c1ccccc1 [Compound 45, (Z)-N-[1-[(4-hydroxy-1-piperidinyl)carbonyl]-2-phenylethenyl]benzamide]
inhibition at 100 µg/mL [1]: 30% | inhibition at 100 µg/mL [2]: 22% | inhibition at 100 µg/mL [3]: 54% | inhibition at 100 µg/mL [4]: 52% | inhibition at 50 µg/mL (Alternaria solani; read-out: Fungicidal activity (inhibition) against AS: Alternaria solani): < 30% | inhibition at 50 µg/mL (Alternaria solani; [6]): 25% | inhibition at 50 µg/mL (Botrytis cinerea): 12% | inhibition at 50 µg/mL (Cercospora arachidicola; read-out: Fungicidal activity (inhibition) against CA: Cercospora arachidicola): < 25% | inhibition at 50 µg/mL (Cercospora arachidicola; [7]): 6% | inhibition at 50 µg/mL (wheat Gibberella zeae; read-out: Fungicidal activity (inhibition) against GZ: wheat Gibberella zeae): < 45% | inhibition at 50 µg/mL (wheat Gibberella zeae; [8]): 43% | inhibition at 50 µg/mL ([5]; read-out: Fungicidal activity (inhibition) against PI: Phytophthora infestans (Mont) de Bary): < 25% | inhibition at 50 µg/mL [5, 9]: 24% | inhibition at 50 µg/mL (Physalospora piricola; read-out: Fungicidal activity (inhibition) against PP: Physalospora piricola): < 20% | inhibition at 50 µg/mL (Physalospora piricola; [10]): 6% | inhibition at 50 µg/mL (Pellicularia sasakii; read-out: Fungicidal activity (inhibition) against PS: Pellicularia sasakii): < 30% | inhibition at 50 µg/mL (Pellicularia sasakii; [11]): 3% | inhibition at 50 µg/mL (Rhizoctonia cerealis; read-out: Fungicidal activity (inhibition) against RC: Rhizoctonia cerealis): < 20% | inhibition at 50 µg/mL (Rhizoctonia cerealis; [12]): 13% | inhibition at 50 µg/mL (Sclerotinia sclerotiorum; [13]): 38% | inhibition at 50 µg/mL (Sclerotinia sclerotiorum; [14]): 38% | melting point: 115 to 117 °C

O=C(NCc1ccc(Br)cc1)/C(=C/c1ccccc1)NC(=O)c1ccccc1 [Compound 46, N-[(1Z)-2-phenyl-1-[[(4-bromophenylmethyl)amino]carbonyl]ethenyl]benzamide]
inhibition at 100 µg/mL [1]: 33% | inhibition at 100 µg/mL [2]: 64% | inhibition at 100 µg/mL [3]: 41% | inhibition at 100 µg/mL [4]: 44% | inhibition at 50 µg/mL (Alternaria solani; [6]): 7% | inhibition at 50 µg/mL (Botrytis cinerea): 9% | inhibition at 50 µg/mL (Cercospora arachidicola; [7]): 18% | inhibition at 50 µg/mL (wheat Gibberella zeae; [8]): 43% | inhibition at 50 µg/mL [5, 9]: 11% | inhibition at 50 µg/mL (Physalospora piricola; [10]): 12% | inhibition at 50 µg/mL (Pellicularia sasakii; [11]): 2% | inhibition at 50 µg/mL (Rhizoctonia cerealis; [12]): 13% | inhibition at 50 µg/mL (Sclerotinia sclerotiorum; [14]): 34% | melting point: 192 to 194 °C

CC(C)(C)OC(=O)N1CCC(c2nc(/C=C(\NC(=O)c3ccccc3)C(=O)NCc3ccc(Br)cc3)cs2)CC1 [Compound 47, N-[(1Z)-2-[4-[2-[4-(1-Boc-piperidine)]thiazol]]-1-[[(4-bromophenylmethyl)amino]carbonyl]ethenyl]benzamide]
inhibition at 100 µg/mL [1]: 56% | inhibition at 100 µg/mL [2]: 0% | inhibition at 100 µg/mL [3]: 41% | inhibition at 100 µg/mL [4]: 53% | inhibition at 50 µg/mL (Alternaria solani; [6]): 36% | inhibition at 50 µg/mL (Botrytis cinerea): 32% | inhibition at 50 µg/mL (Cercospora arachidicola; [7]): 22% | inhibition at 50 µg/mL (wheat Gibberella zeae; [8]): 22% | inhibition at 50 µg/mL [5, 9]: 20% | inhibition at 50 µg/mL (Physalospora piricola; [10]): 22% | inhibition at 50 µg/mL (Pellicularia sasakii; [11]): 19% | inhibition at 50 µg/mL (Rhizoctonia cerealis; [12]): 21% | inhibition at 50 µg/mL (Sclerotinia sclerotiorum; [13]): 80 to 95% | inhibition at 50 µg/mL (Sclerotinia sclerotiorum; [14]): 82% | melting point: 101 to 103 °C

O=C(NC(Cc1ccccc1)C(=O)N1CCC(c2ccccc2)CC1)c1ccccc1 (stereo not shown) [Compound 48, N-[1-[[4-(4-phenyl)-1-piperidinyl]carbonyl]-2-phenylethyl]benzamide]
inhibition at 100 µg/mL [1]: 25% | inhibition at 100 µg/mL [2]: 32% | inhibition at 100 µg/mL [3]: 2% | inhibition at 100 µg/mL [4]: 27% | inhibition at 50 µg/mL (Alternaria solani; [6]): 18% | inhibition at 50 µg/mL (Botrytis cinerea): 17% | inhibition at 50 µg/mL (Cercospora arachidicola; [7]): 9% | inhibition at 50 µg/mL (wheat Gibberella zeae; [8]): 11% | inhibition at 50 µg/mL [5, 9]: 23% | inhibition at 50 µg/mL (Physalospora piricola; [10]): 14% | inhibition at 50 µg/mL (Pellicularia sasakii; [11]): 17% | inhibition at 50 µg/mL (Rhizoctonia cerealis; [12]): 11% | inhibition at 50 µg/mL (Sclerotinia sclerotiorum; [14]): 64% | melting point: 143 to 144 °C

O=C(NC(Cc1ccccc1)C(=O)N1CCC(O)(c2ccc(Br)cc2)CC1)C1CC1 (stereo not shown) [Compound 49, N-[1-[[4-(4-bromophenyl)-4-hydroxy-1-piperidinyl]carbonyl]-2-phenylethyl]cyclopropanecarboxamide]
inhibition at 100 µg/mL [1]: 29% | inhibition at 100 µg/mL [2]: 31% | inhibition at 100 µg/mL [3]: 41% | inhibition at 100 µg/mL [4]: 21% | inhibition at 50 µg/mL (Alternaria solani; [6]): 28% | inhibition at 50 µg/mL (Botrytis cinerea): 15% | inhibition at 50 µg/mL (Cercospora arachidicola; [7]): 12% | inhibition at 50 µg/mL (wheat Gibberella zeae; [8]): 43% | inhibition at 50 µg/mL [5, 9]: 11% | inhibition at 50 µg/mL (Physalospora piricola; [10]): 6% | inhibition at 50 µg/mL (Pellicularia sasakii; [11]): 14% | inhibition at 50 µg/mL (Rhizoctonia cerealis; [12]): 18% | inhibition at 50 µg/mL (Sclerotinia sclerotiorum; [14]): 50% | melting point: 101 to 103 °C
